The values that follow come from US9340577B2, “HLA binding motifs and peptides and their uses” (priority 1992, dated 2016).

No end group written: not given here.

Some targets named below: A*6801 (Homo sapiens, UniProt P04439, A269V/D185E/E176V/E277Q/E87N/F33Y/G231S/I121M/I166T/I218V/L180W/L300P/L318F/N151K/P208A/P217A/Q86R/R169H/T345S); HLA-A11 (A*1101) (Homo sapiens, UniProt P04439, A114D/D185E/E176A/F33Y/L180Q/S129P/T187R); A*3301 (Homo sapiens, UniProt P04439, A270S/D185E/E176V/E277Q/E87N/F33T/G231S/H175R/I121M/I218V/I322F/K168Q/K210R/L300P/L318F/M331R/P217A/Q86R/Q94H/R138Q/T323A/T345S/T97I/V358M/Y195H); HLA-A3.2 (A*0301) (Homo sapiens, UniProt P04439); A31 (A*3101) (Homo sapiens, UniProt P04439, A270S/D185E/E176V/E277Q/F33T/G231S/G80R/H175R/I121M/I218V/I322F/K168Q/L300P/L318F/M331R/P217A/Q94H/R138Q/T323A/T345S/T97I/V358M).

Common to all, as to assay: biochemical
Holding throughout (assay type): binding

Regarding KVSEFRWYR [Peptide 78.0281], the IC50 on A*6801 stood at 23 nM; on HLA-A11 (A*1101), 15 nM; against A*3301, 32 nM; at HLA-A3.2 (A*0301) it was 43 nM; against A31 (A*3101), 10 nM.

Regarding SVYGETLEK [Peptide 78.0291], the IC50 against A*6801 was 2620 nM; against HLA-A11 (A*1101) it was 166 nM; on A*3301, greater than 20000 nM; against HLA-A3.2 (A*0301), 347 nM; against A31 (A*3101), greater than 20000 nM.

For the sequence DLPSQIEHWK [Peptide 88.0212], the IC50 at A*6801 is 25 nM; against HLA-A11 (A*1101) it was greater than 20000 nM; against A*3301 it was greater than 20000 nM; against HLA-A3.2 (A*0301), greater than 20000 nM; against A31 (A*3101), greater than 20000 nM.

As to KLFLQGTPK [Peptide 88.0381], the IC50 is 703 nM at A*6801; 12 nM against HLA-A11 (A*1101); greater than 20000 nM against A*3301; 15 nM against HLA-A3.2 (A*0301); 51 nM on A31 (A*3101).

On to GTAKSVTCTR [Peptide 1556.31], for which the IC50 on A*6801 came to 208 nM; at HLA-A11 (A*1101), 98 nM; at A*3301 it was 168 nM; against HLA-A3.2 (A*0301), 960 nM; on A31 (A*3101) it was 214 nM.

On to LTTNIHPAK [Peptide 88.0347], for which the IC50 was found to be 16 nM against A*6801; 18 nM against HLA-A11 (A*1101); 575 nM against A*3301; 44 nM against HLA-A3.2 (A*0301); 231 nM at A31 (A*3101).

Regarding VSIEWRQRR [Peptide 9017.0089], the IC50 worked out at 41 nM against A*6801; 13 nM against HLA-A11 (A*1101); 7.1 nM on A*3301; 1350 nM on HLA-A3.2 (A*0301); 1.5 nM against A31 (A*3101).

Regarding RLLKETELRK [Peptide 9012.0248], the half-maximal inhibitory concentration (IC50) is 12800 nM against A*6801; 52 nM on HLA-A11 (A*1101); greater than 20000 nM at A*3301; 27 nM at HLA-A3.2 (A*0301); 7010 nM against A31 (A*3101).

Regarding KVSPIVHLK [Peptide 1589.42], the IC50 was 25 nM against A*6801; 30 nM on HLA-A11 (A*1101); greater than 20000 nM at A*3301; 21 nM at HLA-A3.2 (A*0301); 6 nM against A31 (A*3101).

Turning to QQLLFIHFR [Peptide 9017.0111], the IC50 against A*6801 is 17 nM; at HLA-A11 (A*1101), 4.8 nM; on A*3301, 41 nM; against HLA-A3.2 (A*0301), 1800 nM; at A31 (A*3101), 2 nM.

Regarding KTTVLFKFK [Peptide 88.0369], the IC50 came to 874 nM at A*6801; 20 nM at HLA-A11 (A*1101); 1400 nM at A*3301; 31 nM against HLA-A3.2 (A*0301); 36 nM at A31 (A*3101).

For HLYGYSWYK [Peptide 76.0153], the IC50 on A*6801 came to 16 nM; against HLA-A11 (A*1101) it was 11 nM; against A*3301 it was 61 nM; on HLA-A3.2 (A*0301), 12 nM; on A31 (A*3101), 48 nM.

As to KLCLRFLSK [Peptide 1571.20], the IC50 was greater than 20000 nM against A*6801; 279 nM against HLA-A11 (A*1101); greater than 20000 nM on A*3301; 18 nM against HLA-A3.2 (A*0301); 271 nM at A31 (A*3101).

Take EFTAFLDAFK [Peptide 88.0179]: the IC50 was found to be 127 nM at A*6801; 968 nM at HLA-A11 (A*1101); 14 nM against A*3301; 5790 nM against HLA-A3.2 (A*0301); 16500 nM on A31 (A*3101).

MTDAGTWDK [Peptide 88.0400]: the IC50 was 28 nM on A*6801; 12 nM at HLA-A11 (A*1101); greater than 20000 nM against A*3301; 1580 nM at HLA-A3.2 (A*0301); greater than 20000 nM on A31 (A*3101).

With CFFTRTWSR [Peptide 88.0382], the IC50 came out at 52 nM at A*6801; 1490 nM against HLA-A11 (A*1101); 3 nM on A*3301; 13500 nM at HLA-A3.2 (A*0301); 4.3 nM against A31 (A*3101).

For the sequence ESKKEVESK [Peptide 9017.0083], the IC50 at A*6801 was 158 nM; against HLA-A11 (A*1101), 8040 nM; against A*3301, greater than 20000 nM; against HLA-A3.2 (A*0301), greater than 20000 nM; on A31 (A*3101), greater than 20000 nM.

With VTVKIGGELK [Peptide 1516.03], the IC50 is 33 nM on A*6801; 39 nM at HLA-A11 (A*1101); greater than 20000 nM on A*3301; 4110 nM against HLA-A3.2 (A*0301); greater than 20000 nM against A31 (A*3101).

For the sequence GVSIEWRKRR [Peptide 9017.0221], the IC50 at A*6801 was 8810 nM; at HLA-A11 (A*1101), 6320 nM; against A*3301, 1680 nM; at HLA-A3.2 (A*0301), greater than 20000 nM; on A31 (A*3101), 226 nM.

For WLIKRIRER [Peptide 9017.0122], the IC50 against A*6801 is 50 nM; at HLA-A11 (A*1101) it was greater than 20000 nM; against A*3301, 20 nM; at HLA-A3.2 (A*0301) it was 5160 nM; at A31 (A*3101), 85 nM.

Regarding FLSQVKIPK [Peptide 1589.05], the IC50 came to 48 nM on A*6801; 22 nM against HLA-A11 (A*1101); 158 nM at A*3301; 86 nM against HLA-A3.2 (A*0301); 72 nM on A31 (A*3101).

Consider ATLESITKK [Peptide 78.0300], for which the IC50 is 1950 nM against A*6801; 18 nM on HLA-A11 (A*1101); greater than 20000 nM against A*3301; 56 nM on HLA-A3.2 (A*0301); 3200 nM against A31 (A*3101).

KLFLKGVPK [Peptide 1587.41]: the IC50 against A*6801 was greater than 20000 nM; against HLA-A11 (A*1101), 17 nM; against A*3301, 9680 nM; on HLA-A3.2 (A*0301) it was 16 nM; against A31 (A*3101), 1.5 nM.

Regarding AAEGVGAASR [Peptide 9017.0187], the IC50 on A*6801 is 450 nM; on HLA-A11 (A*1101), 478 nM; at A*3301 it was 5100 nM; against HLA-A3.2 (A*0301) it was greater than 20000 nM; on A31 (A*3101), 3270 nM.

For the sequence ITVSAELPR [Peptide 1556.18], the IC50 on A*6801 is 25 nM; on HLA-A11 (A*1101), 739 nM; on A*3301, 8710 nM; against HLA-A3.2 (A*0301) it was greater than 20000 nM; on A31 (A*3101), 6930 nM.

KFYSKISEYR [Peptide 78.0081]: the IC50 against A*6801 is 264 nM; against HLA-A11 (A*1101) it was 18000 nM; on A*3301 it was 79 nM; at HLA-A3.2 (A*0301), 1680 nM; against A31 (A*3101), 48 nM.

For the sequence LQLALEALNK [Peptide 88.0227], the IC50 against A*6801 is greater than 20000 nM; against HLA-A11 (A*1101), 21 nM; against A*3301 it was greater than 20000 nM; against HLA-A3.2 (A*0301) it was 1100 nM; against A31 (A*3101) it was 3630 nM.

Turning to SSIVGWPAVR [Peptide 9017.0185], the IC50 against A*6801 stood at 14 nM; on HLA-A11 (A*1101), 22 nM; against A*3301, 648 nM; against HLA-A3.2 (A*0301), 3170 nM; on A31 (A*3101) it was 26 nM.

Consider VTIYYGVPVWR [Peptide 1525.04], for which the IC50 on A*6801 amounted to 3.4 nM; on HLA-A11 (A*1101), 3 nM; at A*3301, 51 nM; against HLA-A3.2 (A*0301), 920 nM; on A31 (A*3101), 4 nM.

On to VTVYYGIPVWR [Peptide 1525.05], for which the IC50 against A*6801 came out at 3.6 nM; at HLA-A11 (A*1101) it was 17 nM; against A*3301 it was 4.5 nM; on HLA-A3.2 (A*0301) it was 123 nM; against A31 (A*3101) it was 3.8 nM.

For TVSAELPR [Peptide 1556.22], the IC50 against A*6801 is 214 nM; against HLA-A11 (A*1101), 1880 nM; at A*3301, 10100 nM; at HLA-A3.2 (A*0301), greater than 20000 nM; against A31 (A*3101) it was 11500 nM.

As for GTVFGILIKR [Peptide 9012.0243], the IC50 was found to be 18 nM on A*6801; 27 nM at HLA-A11 (A*1101); 3130 nM against A*3301; 2560 nM against HLA-A3.2 (A*0301); 46 nM against A31 (A*3101).

A word on the IC50: it is the point on the concentration scale where inhibition reaches its midpoint. High values mean weaker potency, low ones greater potency.
